± gives the expanded uncertainty stated by the source.
Legend:
[1] = Crystal; for vapor or sublimation pressure: Transpiration method; for Normal melting temperature: DTA
[2] = Molar enthalpy of transition or fusion; settings: Crystal; DSC

CC(=O)Nc1ccccc1C(=O)O [2-acetamidobenzoic acid]
vapor or sublimation pressure ([1]; 344.7 K): 1.66e-05 ± 9e-07 kPa
vapor or sublimation pressure ([1]; 351.3 K): 3.37e-05 ± 1.8e-06 kPa
vapor or sublimation pressure ([1]; 357.3 K): 5.58e-05 ± 2.9e-06 kPa
vapor or sublimation pressure ([1]; 363.5 K): 0.000111 ± 6e-06 kPa
vapor or sublimation pressure ([1]; 363.8 K): 0.000116 ± 6e-06 kPa
vapor or sublimation pressure ([1]; 366.2 K): 0.000138 ± 7e-06 kPa
vapor or sublimation pressure ([1]; 369.7 K): 0.000235 ± 1.2e-05 kPa
vapor or sublimation pressure ([1]; 371 K): 0.000243 ± 1.2e-05 kPa
vapor or sublimation pressure ([1]; 373.5 K): 0.000289 ± 1.5e-05 kPa
vapor or sublimation pressure ([1]; 377.4 K): 0.000555 ± 2.8e-05 kPa
vapor or sublimation pressure ([1]; 380 K): 0.000571 ± 2.9e-05 kPa
vapor or sublimation pressure ([1]; 383.8 K): 0.000948 ± 4.8e-05 kPa
vapor or sublimation pressure ([1]; 387.2 K): 0.00117 ± 6e-05 kPa
vapor or sublimation pressure ([1]; 390.4 K): 0.00152 ± 8e-05 kPa
vapor or sublimation pressure ([1]; 393.5 K): 0.00198 ± 0.0001 kPa
Normal melting temperature [1]: 185.2 ± 1.1 °C
Molar enthalpy of transition or fusion [2]: 11.8 ± 0.239 kcal/mol

CC(=O)Nc1cccc(C(=O)O)c1 [3-(acetylamino)benzoic acid]
vapor or sublimation pressure ([1]; 407.2 K): 2.67e-05 ± 1.4e-06 kPa
vapor or sublimation pressure ([1]; 410.9 K): 4.67e-05 ± 2.4e-06 kPa
vapor or sublimation pressure ([1]; 414.1 K): 5.62e-05 ± 2.9e-06 kPa
vapor or sublimation pressure ([1]; 416.6 K): 6.27e-05 ± 3.2e-06 kPa
vapor or sublimation pressure ([1]; 420.9 K): 0.000102 ± 5e-06 kPa
vapor or sublimation pressure ([1]; 423.6 K): 0.000114 ± 6e-06 kPa
vapor or sublimation pressure ([1]; 426.8 K): 0.000148 ± 8e-06 kPa
vapor or sublimation pressure ([1]; 427.3 K): 0.000187 ± 1e-05 kPa
vapor or sublimation pressure ([1]; 430.6 K): 0.000246 ± 1.2e-05 kPa
vapor or sublimation pressure ([1]; 433 K): 0.000315 ± 1.6e-05 kPa
vapor or sublimation pressure ([1]; 434.8 K): 0.000374 ± 1.9e-05 kPa
vapor or sublimation pressure ([1]; 436.1 K): 0.000403 ± 2e-05 kPa
vapor or sublimation pressure ([1]; 440.1 K): 0.00051 ± 2.6e-05 kPa
vapor or sublimation pressure ([1]; 442.9 K): 0.000663 ± 3.3e-05 kPa
Normal melting temperature [1]: 245.1 ± 2.1 °C
Molar enthalpy of transition or fusion [2]: 9.42 ± 0.215 kcal/mol

CC(=O)Nc1ccc(C(=O)O)cc1 [4-acetamidobenzoic acid]
vapor or sublimation pressure ([1]; 395 K): 1.43e-05 ± 8e-07 kPa
vapor or sublimation pressure ([1]; 398.2 K): 2.1e-05 ± 1.2e-06 kPa
vapor or sublimation pressure ([1]; 398.5 K): 2.09e-05 ± 1.1e-06 kPa
vapor or sublimation pressure ([1]; 402.5 K): 2.92e-05 ± 1.6e-06 kPa
vapor or sublimation pressure ([1]; 405.5 K): 3.48e-05 ± 1.8e-06 kPa
vapor or sublimation pressure ([1]; 409.1 K): 5.24e-05 ± 2.7e-06 kPa
vapor or sublimation pressure ([1]; 412.1 K): 6.72e-05 ± 3.5e-06 kPa
vapor or sublimation pressure ([1]; 415.3 K): 0.0001 ± 5e-06 kPa
vapor or sublimation pressure ([1]; 418.9 K): 0.000126 ± 6e-06 kPa
vapor or sublimation pressure ([1]; 422.1 K): 0.000193 ± 1e-05 kPa
vapor or sublimation pressure ([1]; 425 K): 0.000227 ± 1.1e-05 kPa
vapor or sublimation pressure ([1]; 428.5 K): 0.000352 ± 1.8e-05 kPa
vapor or sublimation pressure ([1]; 431.7 K): 0.000393 ± 2e-05 kPa
vapor or sublimation pressure ([1]; 436.2 K): 0.000775 ± 3.9e-05 kPa
vapor or sublimation pressure ([1]; 440 K): 0.000934 ± 4.7e-05 kPa
Normal melting temperature [1]: 262.1 ± 2.1 °C
Molar enthalpy of transition or fusion [2]: 8.17 ± 0.191 kcal/mol

— the NIST ThermoML archive (doi:10.1016/j.tca.2014.03.019)
